Reference: PubChem BioAssay (NCI)
“And” between values parts separate entries of the source, which are not always exact repeats. Equal values may be shown once.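 Protocol summary: plate cells (96-well), add compound at 5 concentrations, incubate 48 h, interpolate endpoints linearly. GI50 is the concentration that inhibits growth by half. The concentration for full growth arrest is given as TGI.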

Key:
Assay in all cases: DTP human tumour cell line panel, 48 h
[1] = test system: KM12 colon
[2] = test system: HCT-15 colon
[3] = test system: A498 renal
[4] = test system: SNB-75 CNS
[5] = test system: T-47D breast
[6] = test system: MALME-3M melanoma
[7] = test system: SR leukemia
[8] = test system: U251 CNS
[9] = test system: BT-549 breast
[10] = test system: TK-10 renal

Compound | GI50 [1] | TGI [1] | GI50 [2] [µM] | TGI [2] | GI50 [3] | TGI [3] | GI50 [4] | TGI [4] | GI50 [5] [µM] | TGI [5] [µM] | GI50 [6] | TGI [6] | GI50 [7] [µM] | TGI [7] [µM] | GI50 [8] | TGI [8] | GI50 [9] | TGI [9] [µM] | GI50 [10] | TGI [10]
Clc1ccc(-c2c3c(nn2-c2ccccn2)CCc2ccccc2-3)cc1Cl | > 100 µM | > 100 µM | > 100 | > 100 µM | > 100 µM | > 100 µM | 67.6 µM | > 100 µM | > 100 | > 100 | 47.9 µM | > 100 µM | 78.1 | > 100 | > 100 µM | > 100 µM | > 100 µM | > 100 | 65.6 µM | > 100 µM
O=C(Cc1ccc(F)c(F)c1)Nc1cc(C2(C(F)(F)F)CC2)nn1Cc1ccccc1 | 4.41 µM | > 15 µM | 4.03 | > 15 µM | 0.548 µM | 4.35 µM | 0.747 µM | 7.09 µM | 2.96 | 13 | 2.49 µM | 7.85 µM | 3.89 | > 15 | 4.61 µM | > 15 µM | 3.73 µM | > 15 | 4.5 µM | > 15 µM
CCN(CC)CCCNCc1cc(-c2ccccc2)nc2ccccc12 | 15 µM | > 100 µM | 3.24 | 45.8 µM | 12.3 µM | 41.3 µM | 12.3 µM | 35.8 µM | 10.2 | 59.6 | 7.2 µM | 24.3 µM | 0.348 | 13.1 | 4.16 µM | 19.4 µM | 3.77 µM | 15.9 | 5.09 µM | 31.8 µM
C#CCSc1cc(Cl)c(C)cc1S(=O)(=O)Nc1nc2ccccc2o1 | 27.4 µM | 75.4 µM | 31.5 | 90 µM | 33.4 µM | 87.1 µM | 85.8 µM | > 100 µM | 44.3 | > 100 | 28.1 µM | 73.5 µM | 35.6 | > 100 | 38.5 µM | > 100 µM | 27.8 µM | 65.5 | 48.5 µM | > 100 µM
CCC/C(=N\NC(=S)N1CC2CCC(CC2)C1)c1ccccn1 | 0.0382 µM | 0.631 µM and 1.32 µM | – | 0.716 µM and 2.91 µM | 0.263 µM | 2.06 µM and 1.61 µM | 0.595 µM | 3.21 µM and 2.18 µM | – | 0.233 | – | 2.76 µM and 1.99 µM | – | 2.77 | 0.142 µM | 0.627 µM and 1.38 µM | – | 1.96 | – | 5.84 µM and 2.9 µM
CNC(=O)c1ccccc1Nc1nc(Nc2cc(OC)c(OC)c(OC)c2)ncc1Br | < 0.0136 µM | 4.98 µM | 0.0283 | 7.75 µM | < 0.0109 µM | 0.0368 µM | < 0.0124 µM | 0.0494 µM | 1.07 | 6.71 | 0.0266 µM | 1.79 µM | 0.0254 | – | 0.0426 µM | 3.38 µM | 0.0704 µM | 1.17 | 0.0186 µM | 0.648 µM
NCC1OC(n2cnc3c(N)ncnc32)CC1O (configuration not stated) | – | > 100 µM | – | > 100 µM | – | > 100 µM | – | > 100 µM | – | > 100 | – | > 100 µM | – | > 100 | – | > 100 µM | – | > 100 | – | > 100 µM
COc1cc(C(=O)N2CCN(c3ncnc4ccccc34)CC2)c(N)cc1OCc1ccccc1 | 14.9 µM | 38.4 µM | 16.7 | 31 µM | 5.47 µM | 19.2 µM | 7.63 µM | 20.8 µM | 7.08 | 40.9 | 13.7 µM | 30.4 µM | 4.11 | 15.9 | 11.3 µM | 23.3 µM | 11.3 µM | 25 | 20 µM | 51.1 µM
Nc1nc2c(ncn2C2C=CC(CO)C2)c(=O)[nH]1 (configuration not stated) | – | > 100 µM | – | > 100 µM | – | > 100 µM | – | > 100 µM | – | > 100 | – | > 100 µM | – | > 100 | – | > 100 µM | – | > 100 | – | > 100 µM
C=C1CCC2C3(C)COC(c4ccccc4)OC3CCC2(C)C1/C=C/C1=CCOC1=O (configuration not stated) | 2.91 µM | 11.4 µM | 2.41 | 11.5 µM | 17.9 µM | 46 µM | 2.64 µM | 10.1 µM | 19.9 | 69.4 | 15.6 µM | 32.6 µM | 1.27 | 4.06 | 2.87 µM | 12.3 µM | 6.29 µM | 20.8 | 12.3 µM | 34 µM
Cc1nc2ccccc2c(/C=C/c2ccc(Cl)cc2)c1C(=O)/C=C/c1ccc(C(F)(F)F)cc1 | 1.28 µM | 3.46 µM | 0.179 | 0.599 µM | 1.32 µM | 2.62 µM | 1.28 µM | 2.57 µM | 0.299 | 1.46 | 0.404 µM | 1.56 µM | 0.25 | 2.26 | 0.264 µM | 0.865 µM | 0.623 µM | 2.1 | 1.69 µM | 3.09 µM
O=C(O)C1(C(=O)O)CCC1.[NH2-].[NH2-].[Pt+2] | 218 µM and > 250 µM | > 250 µM | > 250 | > 250 µM | 224 µM and 154 µM | 248 µM and > 250 µM | 108 µM and > 114 µM | 247 µM and > 250 µM | > 250 | > 250 | 72.2 µM and 107 µM | 180 µM and 192 µM | 94.6 | > 230 | 67.2 µM and 162 µM | 183 µM and > 250 µM | 97.5 µM and 200 µM | > 250 | 220 µM and 131 µM | > 250 µM
COc1cc(NCCCN=C(N)NC(N)=NC(C)C)c2ncccc2c1 | 0.633 µM | 11.2 µM | > 100 | > 100 µM | 36.6 µM | > 88.8 µM | 4.81 µM | 28.5 µM | 1.58 | – | 0.813 µM | 4.1 µM | 7.71 | 45.8 | 6.41 µM | > 45.1 µM | 10 µM | 22.8 | 15.7 µM | 46.1 µM
COCc1cc(C(=O)Nc2cc([C@H]3CC[C@@H](OC(=O)NC(C)C)C3)[nH]n2)n(C)n1 | 1.27 µM | 23.1 µM | 22.8 | > 100 µM | 11.4 µM | 34.5 µM | 3.86 µM | 22.4 µM | 9.71 | 89 | 24.2 µM | 74.1 µM | 1.32 | 9.9 | 8.94 µM | > 100 µM | 9.27 µM | 41.1 | 19.9 µM | > 100 µM
